How the values were obtained:
Format in all cases: cell-based
[1] = tested on: influenza virus H1N1 in MDCK cells; details: MOI 0.005, 48 hours, neuraminidase activity, read-out: NA_VIR_H1N1 EC50
From the text: (§1) Influenza Virus Neuraminidase Assay (NA Assay)

[2] = tested on: influenza virus minigenome (PB2, PB1, PA, NP) RNP_Hubei in 293T cells; test: cells; details: unidentified influenza virus, HEK-293T, 48 h, read-out: RNP_Hubei EC50
[3] = tested on: influenza A virus minigenome (PB2, PB1, PA, NP) RNP_Alaska in 293T cells; test: cells; details: HEK-293T, 48 h, read-out: RNP_Alaska EC50
[4] = tested on: influenza A virus minigenome (PB2, PB1, PA, NP) RNP_CAL in 293T cells; test: cells; details: HEK-293T, 48 h, read-out: RNP_CAL_EC50
[5] = tested on: influenza virus H3N2 in MDCK cells; details: MOI 0.005, 48 hours, neuraminidase activity, read-out: NA_VIR_H3N2 EC50
From the text: as §1

In the case of `O=c1ccn2c(c1O)-c1ncc(C(F)(F)F)n1C[C@@H]2C(c1ccccc1)c1ccccc1` [Example 58, (S)-6-benzhydryl-11-hydroxy-3-(trifluoromethyl)-5H-imidazo[1,2-a]pyrido[2,1-c]pyrazin-10(6H)-one], the EC50 [1] is reported as 200 nM.

In the case of `O=c1ccn2c(c1O)-c1ncc(CNC3CCOCC3)n1C[C@@H]2C(c1ccccc1)c1ccccc1` [Example 65, (S)-6-benzhydryl-11-hydroxy-3-(((tetrahydro-2H-pyran-4-yl)amino)methyl)-5,6-dihydro-10H-imidazo[1,2-a]pyrido[2,1-c]pyrazin-10-one], the EC50 [2] is reported as 4900 nM, the EC50 [3] is reported as 4800 nM and the EC50 [4] is reported as 3500 nM.

With `C[C@@H](NCc1cnc2n1C[C@H](C(c1ccccc1)c1ccccc1)n1ccc(=O)c(O)c1-2)C(F)(F)F` [Example 66, (S)-6-benzhydryl-11-hydroxy-3-((((R)-1,1,1-trifluoropropan-2-yl)amino)methyl)-5,6-dihydro-10H-imidazo[1,2-a]pyrido[2,1-c]pyrazin-10-one] the EC50 [2] was 630 nM, the EC50 [3] was 720 nM and the EC50 [4] was 310 nM.

For `O=c1ccn2c(c1O)-c1ncc(CN3CCOCC3)n1C[C@@H]2C(c1ccccc1)c1ccccc1` [Example 67, (S)-6-benzhydryl-11-hydroxy-3-(morpholinomethyl)-5,6-dihydro-10H-imidazo[1,2-a]pyrido[2,1-c]pyrazin-10-one], the EC50 [5] was 10000 nM.

With `CNC(=O)c1cnc2n1C[C@H](C(c1ccccc1)c1ccccc1)n1ccc(=O)c(O)c1-2` [Example 69, (S)-6-benzhydryl-11-hydroxy-N-methyl-10-oxo-5,6-dihydro-10H-imidazo[1,2-a]pyrido[2,1-c]pyrazine-3-carboxamide] the EC50 [5] was greater than 50000 nM.

In the case of `O=C(NC1CC1)c1cnc2n1C[C@H](C(c1ccccc1)c1ccccc1)n1ccc(=O)c(O)c1-2` [Example 70, (S)-6-benzhydryl-N-cyclopropyl-11-hydroxy-10-oxo-5,6-dihydro-10H-imidazo[1,2-a]pyrido[2,1-c]pyrazine-3-carboxamide], the EC50 [2] is reported as 12300 nM, the EC50 [3] is reported as 6400 nM and the EC50 [4] is reported as 1700 nM.

In the case of `COCCNC(=O)c1cnc2n1C[C@H](C(c1ccccc1)c1ccccc1)n1ccc(=O)c(O)c1-2` [Example 71, (S)-6-benzhydryl-11-hydroxy-N-(2-methoxyethyl)-10-oxo-5,6-dihydro-10H-imidazo[1,2-a]pyrido[2,1-c]pyrazine-3-carboxamide], the EC50 [5] is reported as greater than 50000 nM.

`O=C(c1cnc2n1C[C@H](C(c1ccccc1)c1ccccc1)n1ccc(=O)c(O)c1-2)N1CCCC1` [Example 72, (S)-6-benzhydryl-11-hydroxy-3-(pyrrolidine-1-carbonyl)-5,6-dihydro-10H-imidazo[1,2-a]pyrido[2,1-c]pyrazin-10-one] showed an EC50 [2] of 5500 nM, an EC50 [3] of 3000 nM and an EC50 [4] of 1700 nM.

Molecule `O=c1ccn2c(c1O)-c1nccn1CN2C1c2ccccc2CSc2ccccc21` (stereo not drawn) [Example 74, 6-(6,11-dihydrodibenzo[b,e]thiepin-11-yl)-11-hydroxy-5,6-dihydro-10H-imidazo[1,2-d]pyrido[2,1-f][1,2,4]triazin-10-one] has an EC50 [2] of 260 nM, an EC50 [3] of 130 nM and an EC50 [4] of 84 nM.

`CC1(C)N(C(c2ccccc2)c2ccccc2)n2ccc(=O)c(O)c2-c2nccn21` [Example 75, 6-benzhydryl-11-hydroxy-5,5-dimethyl-5,6-dihydro-10H-imidazo[1,2-d]pyrido[2,1-f][1,2,4]triazin-10-one] gave an EC50 [2] of 400 nM, an EC50 [3] of 480 nM and an EC50 [4] of 300 nM.

With `O=c1ccn2c(c1O)-c1nccn1C(C1CC1)N2C1c2ccccc2CSc2ccccc21` (stereo not drawn) [Example 76, 5-cyclopropyl-6-(6,11-dihydrodibenzo[b,e]thiepin-11-yl)-11-hydroxy-5,6-dihydro-10H-imidazo[1,2-d]pyrido[2,1-f][1,2,4]triazin-10-one] the EC50 [2] was 670 nM, the EC50 [3] was 430 nM and the EC50 [4] was 160 nM.

`CCC1N(C(c2ccccc2)c2ccccc2)n2ccc(=O)c(O)c2-c2nccn21` (stereo not drawn) [Example 78, 6-benzhydryl-5-ethyl-11-hydroxy-5,6-dihydro-10H-imidazo[1,2-d]pyrido[2,1-f][1,2,4]triazin-10-one] showed an EC50 [2] of 340 nM, an EC50 [3] of 250 nM and an EC50 [4] of 180 nM.

Molecule `O=c1ccn2c(c1O)-c1nccn1C1(COC1)N2C1c2ccccc2CSc2ccccc21` (stereo not drawn) [Example 80, 6-(6,11-dihydrodibenzo[b,e]thiepin-11-yl)-11-hydroxy-6H,10H-spiro[imidazo[1,2-d]pyrido[2,1-f][1,2,4]triazine-5,3′-oxetan]-10-one] has an EC50 [2] of 27 nM, an EC50 [3] of 170 nM and an EC50 [4] of 10 nM.

For `Cn1cnc2c1CN(C(c1ccccc1)c1ccccc1)n1ccc(=O)c(O)c1-2` [Example 82, 5-benzhydryl-10-hydroxy-3-methyl-4,5-dihydroimidazo[4,5-d]pyrido[1,2-b]pyridazin-9(3H)-one], the EC50 [1] was 1000 nM and the EC50 [5] was 4000 nM.

`O=c1ccn2c(c1O)-c1ncoc1CN2C(c1ccccc1)c1ccccc1` [Example 83, 5-benzhydryl-10-hydroxy-4,5-dihydro-9H-oxazolo[4,5-d]pyrido[1,2-b]pyridazin-9-one] was tested, and the EC50 [2] was 730 nM, the EC50 [3] was 960 nM and the EC50 [4] was 970 nM.

`O=c1ccn2c(c1O)-c1ocnc1CN2C(c1ccccc1)c1ccccc1` [Example 84, 5-benzhydryl-10-hydroxy-4,5-dihydro-9H-oxazolo[5,4-d]pyrido[1,2-b]pyridazin-9-one] was tested, and the EC50 [2] was 16000 nM, the EC50 [3] was 14000 nM and the EC50 [4] was 11000 nM.

In the case of `CC(=O)Oc1c2n(ncc1=O)[C@@H](C(c1ccc(F)cc1)c1ccc(F)cc1)Cn1ccnc1-2` [Example 85, (S)-6-(bis(4-fluorophenyl)methyl)-10-oxo-5,6-dihydro-10H-imidazo[2′,1′:3,4]pyrazino[1,2-b]pyridazin-11-yl acetate], the EC50 [2] is reported as 49 nM, the EC50 [3] is reported as 19 nM and the EC50 [4] is reported as 22 nM.

In the case of `CC(C)C(=O)Oc1c2n(ncc1=O)[C@@H](C(c1ccc(F)cc1)c1ccc(F)cc1)Cn1ccnc1-2` [Example 86, (S)-6-(bis(4-fluorophenyl)methyl)-10-oxo-5,6-dihydro-10H-imidazo[2′,1′:3,4]pyrazino[1,2-b]pyridazin-11-yl Isobutyrate], the EC50 [2] is reported as 47 nM, the EC50 [3] is reported as 30 nM and the EC50 [4] is reported as 21 nM.

For `CC(C)CC(=O)Oc1c2n(ncc1=O)[C@@H](C(c1ccc(F)cc1)c1ccc(F)cc1)Cn1ccnc1-2` [Example 87, (S)-6-(bis(4-fluorophenyl)methyl)-10-oxo-5,6-dihydro-10H-imidazo[2′,1′:3,4]pyrazino[1,2-b]pyridazin-11-yl 3-methylbutanoate], the EC50 [2] was 43 nM, the EC50 [3] was 27 nM and the EC50 [4] was 21 nM.

For `COC(=O)OCOc1c2n(ncc1=O)[C@@H](C(c1ccc(F)cc1)c1ccc(F)cc1)Cn1ccnc1-2` [Example 88, (S)-((6-(bis(4-fluorophenyl)methyl)-10-oxo-5,6-dihydro-10H-imidazo[2′,1′:3,4]pyrazino[1,2-b]pyridazin-11-yl)oxy)methyl methyl Carbonate], the EC50 [2] was 89 nM, the EC50 [3] was 32 nM and the EC50 [4] was 42 nM.

— US11453677B2 (priority 2016, dated 2022)
